Where two headings read alike, the source gives them in different places.
Legend:
human PDE9A2 = biological target: T1, human PDE9A2 (Homo sapiens, UniProt O76083); assay: PDE9A2 enzymatic activity assay (scintillation proximity assay, SPA); type: biochemical; details: for IC50: reported only as range 1-100 or 101-1200 nanomolar, specific value lies within range
T1 construct: made in house; host or cells: Sf9 insect cells (infected); crude lysate used as enzyme source

human PDE9A = human PDE9A (Homo sapiens, UniProt O76083); details: concentrations of up to 100 micromolar; cited from earlier work
Sequence of human PDE9A (O76083 whole entry): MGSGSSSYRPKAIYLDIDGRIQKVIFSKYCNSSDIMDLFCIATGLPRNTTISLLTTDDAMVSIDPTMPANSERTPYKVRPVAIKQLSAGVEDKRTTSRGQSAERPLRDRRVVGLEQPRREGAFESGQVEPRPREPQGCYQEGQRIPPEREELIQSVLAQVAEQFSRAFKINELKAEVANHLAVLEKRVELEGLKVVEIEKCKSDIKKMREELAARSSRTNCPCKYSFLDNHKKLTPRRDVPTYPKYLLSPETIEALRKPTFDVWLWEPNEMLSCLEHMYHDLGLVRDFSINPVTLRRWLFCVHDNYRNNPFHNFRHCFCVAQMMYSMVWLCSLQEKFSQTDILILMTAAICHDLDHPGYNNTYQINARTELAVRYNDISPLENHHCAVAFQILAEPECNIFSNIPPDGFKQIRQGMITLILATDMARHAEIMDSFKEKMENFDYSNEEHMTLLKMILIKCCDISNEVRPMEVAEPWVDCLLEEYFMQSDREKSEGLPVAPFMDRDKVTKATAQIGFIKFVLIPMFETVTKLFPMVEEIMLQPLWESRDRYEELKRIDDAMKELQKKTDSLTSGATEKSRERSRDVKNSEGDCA

[1] = read-out: % inhibition of PDE9A2 (at 10 micromolar concentration), 10 micromolar concentration, values above 100% adjusted to 100%
[2] = read-out: IC50 within range [nanomolar (nM)]

T1 sequence (O76083 1-533 isoform O76083-2): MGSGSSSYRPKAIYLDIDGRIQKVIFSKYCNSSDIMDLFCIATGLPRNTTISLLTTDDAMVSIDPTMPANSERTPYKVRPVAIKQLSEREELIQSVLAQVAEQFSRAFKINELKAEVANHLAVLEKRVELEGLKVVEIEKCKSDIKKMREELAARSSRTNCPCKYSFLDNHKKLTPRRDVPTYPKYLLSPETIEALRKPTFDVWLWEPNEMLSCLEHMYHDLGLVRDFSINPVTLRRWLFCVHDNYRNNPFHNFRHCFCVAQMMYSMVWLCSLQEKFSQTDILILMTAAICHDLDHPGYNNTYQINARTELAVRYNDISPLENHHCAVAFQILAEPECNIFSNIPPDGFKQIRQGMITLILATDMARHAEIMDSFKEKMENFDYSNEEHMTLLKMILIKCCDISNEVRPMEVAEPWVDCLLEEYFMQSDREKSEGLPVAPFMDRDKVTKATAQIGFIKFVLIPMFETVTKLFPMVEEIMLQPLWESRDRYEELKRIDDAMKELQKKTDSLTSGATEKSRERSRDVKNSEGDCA

Compound	inhibition at 10 µM (human PDE9A2; [1]) [%]	IC50 (human PDE9A2; [2]) [nM]	IC50 (human PDE9A2; IC50 within range [nanomolar (nM)]) [nM]	inhibition at 10 µM (human PDE9A2; read-out: % inhibition of PDE9A2 (at 10 micromolar concentration)) [%]	inhibition on the isolated enzyme (human PDE9A)
COc1ccc(Cc2nc3c(cnn3C3CCOCC3)c(=O)[nH]2)cc1F [Example 27]	99	1 to 100			
CCCc1nc2c(cnn2C2CCOCC2)c(=O)[nH]1 [Example 29]	96	1 to 100			
COc1cccc(Cl)c1Cc1nc2c(cnn2C2CCOCC2)c(=O)[nH]1 [Example 33]	97	1 to 100			
O=c1[nH]c(CCC(F)(F)F)nc2c1cnn2C1CCOCC1 [Example 34]	93	101 to 1200			
Cc1cc(C)cc(Cc2nc3c(cnn3C3CCOCC3)c(=O)[nH]2)c1 [Example 36]	100	1 to 100			
O=c1[nH]c(Cc2c(F)ccc(F)c2Cl)nc2c1cnn2C1CCOCC1 [Example 37]	97	1 to 100			
O=c1[nH]c(Cc2cc(Cl)cc(Cl)c2)nc2c1cnn2C1CCOCC1 [Example 38]	99	1 to 100			
O=c1[nH]c(CCC2CCC2)nc2c1cnn2C1CCOCC1 [Example 40-1]	100	1 to 100			
O=c1[nH]c(CC2CC2)nc2c1cnn2C1CCSCC1 [Example 40-5]	98	1 to 100			
O=c1[nH]c(CC2CCC(F)(F)CC2)nc2c1cnn2C1CCOCC1 [Example 40-6]	97	1 to 100			
O=c1[nH]c(CC2CCOCC2)nc2c1cnn2C1CCOCC1 [Example 41]	92	101 to 1200			
O=c1[nH]c(CC2CCC2)nc2c1cnn2C1CCOCC1 [Example 43]	98	1 to 100			
O=c1[nH]c(Cc2cccc(C(F)(F)F)c2)nc2c1cnn2C1CCOCC1 [Example 44]	99	1 to 100			
O=c1[nH]c(CC2CC2)nc2c1cnn2C1CCOCC1 [Example 47]	97	1 to 100			
O=c1[nH]c(Cc2cc(OC(F)(F)F)ccc2F)nc2c1cnn2C1CCOCC1 [Example 50]	97	1 to 100			
O=c1[nH]c(Cc2ncccc2C(F)(F)F)nc2c1cnn2C1CCOCC1 [Example 63]	92	101 to 1200			
O=c1[nH]c(Cc2cccc(C(F)(F)F)n2)nc2c1cnn2C1CCOCC1 [Example 64]	97	1 to 100			
O=c1[nH]c(Cc2cc(C(F)(F)F)ccn2)nc2c1cnn2C1CCOCC1 [Example 65]	97	1 to 100			
O=c1[nH]c(Cc2ncccn2)nc2c1cnn2C1CCOCC1 [Example 66]	91	101 to 1200			
COc1cccnc1Cc1nc2c(cnn2C2CCOCC2)c(=O)[nH]1 [Example 67]	95	101 to 1200			
CC(=O)N1CCC(Oc2ccccc2Cc2nc3c(cnn3C3CCOCC3)c(=O)[nH]2)CC1 [Example 68]	97	1 to 100			
CC[C@H](C)Cc1nc2c(cnn2C2CCOCC2)c(=O)[nH]1 [Example 128]	99	1 to 100			
CCC(CC)Cc1nc2c(cnn2C2CCOCC2)c(=O)[nH]1 [Example 133, 6-(2-Ethyl-butyl)-1-(tetrahydro-pyran-4-yl)-1,5-dihydro-pyrazolo[3,4-d]pyrimidin-4-one]	98	1 to 100			

Compound	inhibition at 10 µM (human PDE9A2; [1]) [%]	IC50 (human PDE9A2; [2]) [nM]	IC50 (human PDE9A2; IC50 within range [nanomolar (nM)]) [nM]	inhibition at 10 µM (human PDE9A2; read-out: % inhibition of PDE9A2 (at 10 micromolar concentration)) [%]	inhibition on the isolated enzyme (human PDE9A)
O=c1[nH]c(CC2CCCC2)nc2c1cnn2C1CCOCC1 [Example 134]	99	1 to 100			
O=c1[nH]c(Cc2ccc(F)c(Br)c2)nc2c1cnn2C1CCOCC1 [Example 136]	100	1 to 100			
O=c1[nH]c(Cc2ccc(F)c(Cl)c2)nc2c1cnn2C1CCOCC1 [Example 137]	99	1 to 100			
CC(C)Cc1nc2c(cnn2C2CCOCC2)c(=O)[nH]1 [Example 143]	100	1 to 100			
O=c1[nH]c(CC2CCCCC2)nc2c1cnn2C1CCOCC1 [Example 144]	100	1 to 100			
CN1CCC(n2ncc3c(=O)[nH]c(Cc4ccccc4)nc32)CC1 [Example 148]	86	101 to 1200			
CN1CCC(n2ncc3c(=O)[nH]c(CC4CCCC4)nc32)CC1 [Example 149]	95	101 to 1200			
CN1CCC(n2ncc3c(=O)[nH]c(Cc4ccccc4OC(F)(F)F)nc32)CC1 [Example 150]	90	101 to 1200			
CC(=O)N1CCC(n2ncc3c(=O)[nH]c(CC4CCCC4)nc32)CC1 [Example 151]	92	101 to 1200			
CC(=O)N1CCC(n2ncc3c(=O)[nH]c(Cc4ccccc4)nc32)CC1 [Example 152]	93	101 to 1200			
CC(=O)N1CCC(n2ncc3c(=O)[nH]c(Cc4ccccc4OC(F)(F)F)nc32)CC1 [Example 153]	90	101 to 1200			
O=c1[nH]c(CC2CCCC2)nc2c1cnn2C1CCNCC1 [Example 195]	88	101 to 1200			
O=c1[nH]c(Cc2ccccc2)nc2c1cnn2C1CCNCC1 [Example 202]	83	101 to 1200			
O=c1[nH]c(Cc2ccccc2OC(F)(F)F)nc2c1cnn2C1CCNCC1 [Example 203]	84	101 to 1200			
C=Cc1cc(OC)ccc1Cc1nc2c(cnn2C2CCOCC2)c(=O)[nH]1 [Example 230-4]	98	101 to 1200			
O=C1CC(n2ncc3c(=O)[nH]c(CC4CCCC4)nc32)CCO1 (centres unmarked) [Example 233]	100	1 to 100			
CCc1cc(OC)ccc1Cc1nc2c(cnn2C2CCOCC2)c(=O)[nH]1 [Example 235]	98	101 to 1200			
O=c1[nH]c(CC2CC2)nc2c1cnn2C1CC[S+]([O-])CC1 (centres unmarked) [Example 236]	93	101 to 1200			
O=c1[nH]c(CC2CC2)nc2c1cnn2C1CCS(=O)(=O)CC1 [Example 237]	89	101 to 1200			
CC(=O)Nc1ccc(-c2c[nH]c(=O)cn2)cc1 [SKF94120]					no inhibition
OCCN(CCO)c1nc(N2CCCCC2)c2nc(N(CCO)CCO)nc(N3CCCCC3)c2n1 [dipyridamole]					no inhibition
COc1ccc(C2CNC(=O)C2)cc1OC1CCCC1 (centres unmarked) [rolipram]					no inhibition
CCOC(=O)C1=C[C@]2(CC)CCCN3CCc4c(n1c1ccccc41)[C@@H]32 [vinpocetine]					no inhibition

Now from value to compound, other results behind:

inhibition at 10 µM (human PDE9A2; [1]) [%]	IC50 (human PDE9A2; [2]) [nM]	IC50 (human PDE9A2; IC50 within range [nanomolar (nM)]) [nM]	inhibition at 10 µM (human PDE9A2; read-out: % inhibition of PDE9A2 (at 10 micromolar concentration)) [%]	Compound	inhibition on the isolated enzyme (human PDE9A)
98	1 to 100			O=c1[nH]c(Cc2ccccc2O)nc2c1cnn2C1CCOCC1 [Example 28]	
100	101 to 1200			COc1ccc(C#N)c(Cc2nc3c(cnn3C3CCOCC3)c(=O)[nH]2)c1 [Example 35]	
99	1 to 100			O=c1[nH]c(Cc2cccc(Cl)c2)nc2c1cnn2C1CCOCC1 [Example 39]	
100	1 to 100			COc1ccc(Cc2nc3c(cnn3C3CCOCC3)c(=O)[nH]2)c(Cl)c1 [Example 40-2]	
100	101 to 1200			COc1ccccc1CCc1nc2c(cnn2C2CCOCC2)c(=O)[nH]1 [Example 40-3]	
95	101 to 1200			Cc1cccn(-c2ccccc2Cc2nc3c(cnn3C3CCOCC3)c(=O)[nH]2)c1=O [Example 40-7]	
		1 to 100	99	O=c1[nH]c(Cc2ccccc2)nc2c1cnn2C1CCOCC1 [Example 40]	
98	1 to 100			O=c1[nH]c(Cc2ccccc2C(F)(F)F)nc2c1cnn2C1CCOCC1 [Example 45]	
98	1 to 100			COc1ccccc1Cc1nc2c(cnn2C2CCOCC2)c(=O)[nH]1 [Example 49]	
96	1 to 100			O=c1[nH]c(Cc2ccccn2)nc2c1cnn2C1CCOCC1 [Example 51]	
100	1 to 100			CCOc1ccccc1Cc1nc2c(cnn2C2CCOCC2)c(=O)[nH]1 [Example 52]	
99	1 to 100			N#Cc1ccccc1Cc1nc2c(cnn2C2CCOCC2)c(=O)[nH]1 [Example 53]	
97	1 to 100			CC(C)Oc1ccccc1Cc1nc2c(cnn2C2CCOCC2)c(=O)[nH]1 [Example 54]	
97	1 to 100			O=c1[nH]c(Cc2ccccc2OCC2CC2)nc2c1cnn2C1CCOCC1 [Example 55]	
95	1 to 100			Cc1cccnc1Cc1nc2c(cnn2C2CCOCC2)c(=O)[nH]1 [Example 56]	
100	1 to 100			O=c1[nH]c(Cc2ccccc2O[C@@H]2CCOC2)nc2c1cnn2C1CCOCC1 [Example 57]	
96	1 to 100			O=c1[nH]c(Cc2ccccc2O[C@H]2CCOC2)nc2c1cnn2C1CCOCC1 [Example 58]	
97	1 to 100			O=c1[nH]c(Cc2ccccc2OC2CCOCC2)nc2c1cnn2C1CCOCC1 [Example 60]	
91	101 to 1200			O=c1[nH]c(Cc2cccnc2)nc2c1cnn2C1CCOCC1 [Example 123]	
95	1 to 100			O=c1[nH]c(Cc2ccccc2OC2CCCC2)nc2c1cnn2C1CCOCC1 [Example 125]	
100	1 to 100			O=c1[nH]c(Cc2ccccc2OC(F)(F)F)nc2c1cnn2C1CCOCC1 [Example 138]	
99	1 to 100			O=c1[nH]c(Cc2cccc(F)c2)nc2c1cnn2C1CCOCC1 [Example 139]	
100	1 to 100			O=c1[nH]c(Cc2ccc(F)cc2)nc2c1cnn2C1CCOCC1 [Example 140]	

Reference: patent US8623879B2, “1-heterocyclyl-1,5-dihydro-pyrazolo[3,4-D] pyrimidin-4-one derivates and their use as PDE9A modulators” (Boehringer Ingelheim International GmbH, priority 2008, dated 2014)
